Data from article PMC11768629, “Potential Interaction of Pinocembrin with Drug Transporters and Hepatic Drug-Metabolizing Enzymes” (Pharmaceuticals, 2025).
Where two headings read alike, the source gives them in different places.

Assays:
[1] = test system: hOAT1-MDCK cells; experiment: Cell viability assay (MTT) in hOAT1-MDCK cells; type: cell-based, canine
Experimental: (§1) The hOAT1-MDCK cells and hOAT3-MDCK cells were treated with 1, 10, and 50 μM pinocembrin for 24 h, followed by a measurement of ^3H-PAH and ^3H-estrone sulfate cellular accumulation. […] The inhibitory effect of pinocembrin occurred in a concentration-dependent manner.
We determined whether the inhibitory effect of pinocembrin on hOAT1 and hOAT3. We studied whether pinocembrin could reduce the renal toxicity of tenofovir, a substrate of hOAT1 and hOAT3 known for inducing renal tubular dysfunction.
The confluent cells in 96-well plates were treated with pinocembrin for 48 h at 37 °C. After that, the cells were incubated with 0.5 mg/mL MTT solution for four hours. The MTT solution was removed, and DMSO (100 µL) was added to dissolve the crystal formazan. The formazan content was detected at a wavelength of 570 nm using a microplate reader. Cell viability was reported as a percentage of the vehicle-treated cells.

[2] = test system: BCRP; parameters: method as in PMID 22263589, PMID 23497885; conditions: cited from earlier work
[3] = molecular target: T1, hOAT1 (Homo sapiens, UniProt Q4U2R8); experiment: Pinocembrin treatment followed by 3H-PAH accumulation in hOAT1-MDCK cells; type: cell-based; conditions: 1, 10 and 50 μM for 24 h, concentration-dependent, compared with vehicle
T1 construct: host or cells: MDCK
T1 sequence (Q4U2R8 1-563): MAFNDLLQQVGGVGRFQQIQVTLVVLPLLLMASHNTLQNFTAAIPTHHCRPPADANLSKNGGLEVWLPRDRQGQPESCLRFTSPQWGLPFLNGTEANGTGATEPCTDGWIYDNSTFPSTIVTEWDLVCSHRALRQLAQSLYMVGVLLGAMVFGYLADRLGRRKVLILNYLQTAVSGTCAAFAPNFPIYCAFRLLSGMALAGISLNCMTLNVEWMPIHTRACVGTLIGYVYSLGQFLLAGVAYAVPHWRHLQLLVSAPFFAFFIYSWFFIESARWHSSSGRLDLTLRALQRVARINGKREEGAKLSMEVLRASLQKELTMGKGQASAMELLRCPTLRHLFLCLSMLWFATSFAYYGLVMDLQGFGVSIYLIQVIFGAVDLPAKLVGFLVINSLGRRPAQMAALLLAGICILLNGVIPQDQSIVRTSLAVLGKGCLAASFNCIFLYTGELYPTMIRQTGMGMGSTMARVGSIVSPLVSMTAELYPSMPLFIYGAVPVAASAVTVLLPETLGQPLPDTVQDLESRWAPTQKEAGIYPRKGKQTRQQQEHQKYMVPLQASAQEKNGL
Experimental: as §1
A cell monolayer comprising hOAT1-MDCK, hOAT3-MDCK, hOCT1-CHO-K1, hOCT2-CHO-K1, hMATE1-CHO-K1, hMATE2-CHO-K1, and mock cells were utilized for the uptake experiments. The cells were washed three times with a buffer containing (in mM) 140 NaCl, 5 KCl, 0.4 MgSO4, 0.5 MgCl2, 1 CaCl2, 0.3 Na2HPO4, 0.4 KH2PO4, 6 D-glucose, and 4 NaHCO3 at pH 7.4 and incubated at 37 °C for 15 min. After incubation, the hOAT1-MDCK and hOAT3-MDCK cells were incubated for 10 min with ^3H-PAH and ^3H-estrone sulfate, a substrate of hOAT1 and hOAT3, respectively. The hOCT1-CHO-K1 and hOCT2-CHO-K1 cells were incubated with ^3H-MPP^+, a substrate of OCT1 and OCT2, for five minutes. The functions of MATE1 and MATE2 were determined by incubating the hMATE1-CHO-K1 and hMATE2-CHO-K1 cells with a buffer containing ^3H-MPP^+, a substrate of MATE1 and MATE2, at pH 8.5 for five minutes. The cells were washed three times with an ice-cold buffer to stop the transport function. […] The samples were collected and transferred to vials containing a liquid scintillation cocktail to measure radioactivity by a β-counter (Packard BioScience, Wellesley, MA, USA). […]

[4] = test system: CYP1A2; conditions: cited from earlier work
[5] = test system: CYP3A4; conditions: cited from earlier work
[6] = molecular target: T2, CYP2C9 (Homo sapiens, UniProt P11712); experiment: Cell-free CYP450 inhibition assay, CYP2C9; type: biochemical; conditions: cell-free fluorescent probe assay, BACULOSOMES
T2 construct: purchased Life Technologies
T2 sequence (P11712 whole entry): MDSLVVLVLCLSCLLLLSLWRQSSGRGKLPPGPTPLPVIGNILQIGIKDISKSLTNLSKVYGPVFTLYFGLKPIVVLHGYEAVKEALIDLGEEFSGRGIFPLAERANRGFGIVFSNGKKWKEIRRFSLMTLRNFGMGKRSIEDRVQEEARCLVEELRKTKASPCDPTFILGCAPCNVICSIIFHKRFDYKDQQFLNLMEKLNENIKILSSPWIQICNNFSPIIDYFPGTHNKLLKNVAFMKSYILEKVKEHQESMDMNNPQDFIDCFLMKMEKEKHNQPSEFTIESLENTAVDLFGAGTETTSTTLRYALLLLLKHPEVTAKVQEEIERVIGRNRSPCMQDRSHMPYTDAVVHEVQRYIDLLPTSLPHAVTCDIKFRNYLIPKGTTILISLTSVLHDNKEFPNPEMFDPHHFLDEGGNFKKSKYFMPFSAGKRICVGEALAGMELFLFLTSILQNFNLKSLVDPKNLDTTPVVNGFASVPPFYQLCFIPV
Experimental: To determine whether pinocembrin influences the catalytic activity of CYP450 enzymes, fluorescent probe reaction assays were performed using varying concentrations of pinocembrin. […] In addition, molecular docking was conducted to better understand the binding mode and interactions between pinocembrin and human CYP2C19.
The CYP450 inhibitory activity of pinocembrin was determined using a P450 screening kit (Life Technologies; Carlsbad, CA, USA). Varied concentrations of pinocembrin were prepared in methanol. […] The fluorescence intensities were monitored every minute for 60 min at room temperature. The percentage of inhibition was calculated according to the following equation: % Inhibition=(1−X−B/A−B)×100% where X is the fluorescence intensity observed in the presence of pinocembrin.

[7] = molecular target: T3, hMATE2 (Homo sapiens, UniProt Q86VL8); experiment: Cis-inhibition assay, 3H-MPP+ uptake in hMATE2-CHO-K1 cells; type: cell-based; conditions: pinocembrin, pH 8.5
T3 construct: host or cells: CHO-K1
T3 sequence (Q86VL8 whole entry): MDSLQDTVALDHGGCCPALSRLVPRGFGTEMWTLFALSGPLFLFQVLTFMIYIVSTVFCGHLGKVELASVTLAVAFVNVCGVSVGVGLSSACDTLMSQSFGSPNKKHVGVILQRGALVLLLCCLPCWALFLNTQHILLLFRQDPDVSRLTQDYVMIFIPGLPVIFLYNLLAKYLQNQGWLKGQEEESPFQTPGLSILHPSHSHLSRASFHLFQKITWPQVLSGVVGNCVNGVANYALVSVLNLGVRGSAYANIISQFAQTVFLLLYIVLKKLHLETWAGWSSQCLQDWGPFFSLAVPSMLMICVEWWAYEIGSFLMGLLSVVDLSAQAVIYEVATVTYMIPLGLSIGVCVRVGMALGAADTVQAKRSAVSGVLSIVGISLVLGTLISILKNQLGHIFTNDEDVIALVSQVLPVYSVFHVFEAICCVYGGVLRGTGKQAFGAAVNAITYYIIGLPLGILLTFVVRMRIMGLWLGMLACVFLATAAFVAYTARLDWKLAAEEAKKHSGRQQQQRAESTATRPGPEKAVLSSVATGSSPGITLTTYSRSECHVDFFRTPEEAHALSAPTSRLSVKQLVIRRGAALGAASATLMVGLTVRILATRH
Experimental: (§2) Next, the effects of pinocembrin on the transport function of renal drug transporters, including hOAT1, hOAT3, hOCT1, hOCT2, hMATE1, and hMATE2, were determined.
(§3) A cell monolayer comprising hOAT1-MDCK, hOAT3-MDCK, hOCT1-CHO-K1, hOCT2-CHO-K1, hMATE1-CHO-K1, hMATE2-CHO-K1, and mock cells were utilized for the uptake experiments. The cells were washed three times with a buffer containing (in mM) 140 NaCl, 5 KCl, 0.4 MgSO4, 0.5 MgCl2, 1 CaCl2, 0.3 Na2HPO4, 0.4 KH2PO4, 6 D-glucose, and 4 NaHCO3 at pH 7.4 and incubated at 37 °C for 15 min. After incubation, the hOAT1-MDCK and hOAT3-MDCK cells were incubated for 10 min with ^3H-PAH and ^3H-estrone sulfate, a substrate of hOAT1 and hOAT3, respectively. The hOCT1-CHO-K1 and hOCT2-CHO-K1 cells were incubated with ^3H-MPP^+, a substrate of OCT1 and OCT2, for five minutes. The functions of MATE1 and MATE2 were determined by incubating the hMATE1-CHO-K1 and hMATE2-CHO-K1 cells with a buffer containing ^3H-MPP^+, a substrate of MATE1 and MATE2, at pH 8.5 for five minutes. The cells were washed three times with an ice-cold buffer to stop the transport function. The cells were lyzed with 0.4 N NaOH for at least four hours. The samples were collected and transferred to vials containing a liquid scintillation cocktail to measure radioactivity by a β-counter (Packard BioScience, Wellesley, MA, USA). […]

[8] = molecular target: T4, hOCT2 (Homo sapiens, UniProt O15244); experiment: Cis-inhibition assay, 3H-MPP+ uptake in hOCT2-CHO-K1 cells; type: cell-based; conditions: pinocembrin
T4 construct: host or cells: CHO-K1
T4 sequence (O15244 whole entry): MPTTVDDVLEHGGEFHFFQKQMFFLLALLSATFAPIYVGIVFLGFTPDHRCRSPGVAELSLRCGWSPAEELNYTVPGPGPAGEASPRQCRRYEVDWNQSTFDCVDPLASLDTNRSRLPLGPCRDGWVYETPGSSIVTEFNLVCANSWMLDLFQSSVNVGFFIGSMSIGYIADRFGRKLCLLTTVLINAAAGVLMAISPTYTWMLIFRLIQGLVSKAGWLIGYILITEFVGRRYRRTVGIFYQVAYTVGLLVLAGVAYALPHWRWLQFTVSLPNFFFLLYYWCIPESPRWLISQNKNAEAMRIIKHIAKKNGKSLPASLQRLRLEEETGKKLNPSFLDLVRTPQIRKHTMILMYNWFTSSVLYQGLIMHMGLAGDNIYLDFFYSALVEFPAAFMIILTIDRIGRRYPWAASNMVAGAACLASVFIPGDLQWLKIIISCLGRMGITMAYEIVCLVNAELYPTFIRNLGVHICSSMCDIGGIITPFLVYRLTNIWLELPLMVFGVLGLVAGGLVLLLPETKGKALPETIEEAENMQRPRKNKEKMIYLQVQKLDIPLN
Experimental: as §2, §3

[9] = molecular target: T5, hOCT1 (Homo sapiens, UniProt O15245); experiment: Cis-inhibition assay, 3H-MPP+ uptake in hOCT1-CHO-K1 cells; type: cell-based; conditions: pinocembrin
T5 construct: host or cells: CHO-K1
T5 sequence (O15245 whole entry): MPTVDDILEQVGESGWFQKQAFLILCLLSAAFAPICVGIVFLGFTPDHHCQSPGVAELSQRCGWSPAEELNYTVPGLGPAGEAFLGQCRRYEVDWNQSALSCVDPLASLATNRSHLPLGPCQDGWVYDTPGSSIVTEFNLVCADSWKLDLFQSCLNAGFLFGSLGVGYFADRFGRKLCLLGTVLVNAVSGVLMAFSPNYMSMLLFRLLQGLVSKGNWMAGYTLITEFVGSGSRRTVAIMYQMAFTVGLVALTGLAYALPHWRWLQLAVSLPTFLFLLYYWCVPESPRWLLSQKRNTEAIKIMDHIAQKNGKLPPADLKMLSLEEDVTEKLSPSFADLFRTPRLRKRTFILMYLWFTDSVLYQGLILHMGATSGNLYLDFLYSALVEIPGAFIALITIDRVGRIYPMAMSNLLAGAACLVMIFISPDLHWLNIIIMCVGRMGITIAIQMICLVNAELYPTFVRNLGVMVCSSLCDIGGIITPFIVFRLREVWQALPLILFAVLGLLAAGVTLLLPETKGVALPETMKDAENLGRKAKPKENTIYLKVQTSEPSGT
Experimental: as §2, §3

[10] = test system: OATP1A2; parameters: method as in PMID 28745105; conditions: transfected renal cells; cited from earlier work
[11] = molecular target: T1, hOAT1; experiment: Cis-inhibition assay, 3H-PAH uptake in hOAT1-MDCK cells; type: cell-based; conditions: 10 µM pinocembrin, compared with vehicle control
Experimental: as §2, §3

Structure (SMILES): O=C1C[C@@H](c2ccccc2)Oc2cc(O)cc(O)c21 [pinocembrin]
- cell viability ([1]; pinocembrin 1, 10 and 50 μM, compared to vehicle-treated cells): did not affect cell viability
- cell viability on co-treatment with tenofovir ([1]; tenofovir plus pinocembrin, 48 h, compared with tenofovir-treated cells alone): considerably increased cell viability
- effect on BCRP [2]: weakly inhibited
- 3H-PAH accumulation after pinocembrin treatment [3]: significantly decreased
- mechanism of CYP1A2 inhibition [4]: competitive
- effect on the activity of CYP1A2 ([4]; concentrations of 1–5 µM): shows an inhibitory effect
- effect on the activity of CYP3A4 [5]: inhibits the activities
- effect on the activity of CYP3A4 ([5]; concentrations of 1–5 µM): shows an inhibitory effect
- IC50 [6]: 345 µM
- hMATE2-mediated uptake of 3H-MPP+ [7]: did not alter
- hOCT2-mediated uptake of 3H-MPP+ [8]: did not alter
- hOCT1-mediated uptake of 3H-MPP+ [9]: did not alter
- effect on OATP1A2 function [10]: weakly inhibits
- 3H-PAH cellular accumulation [11]: significantly decreased
